SMILES strings stand for the structures.

Test [1] relates to guanylurea hydrolase (GuuH). As to the kind of experiment: ammonia release, Berthelot reaction. Format: biochemical, Ectopseudomonas mendocina. The following applies: read-out: Exptl determination; 125 mM sodium phosphate, pH 8.0 (optimum), room temperature.
The target of another test is biuret hydrolase (BiuH) (Herbaspirillum sp. BH-1, UniProt A0A2N6JFV5). The test is described as follows: ammonia release, Berthelot reaction. Format: biochemical. To be noted: pH […], sodium phosphate; turnover.
Chain of biuret hydrolase (BiuH) (A0A2N6JFV5 1-231): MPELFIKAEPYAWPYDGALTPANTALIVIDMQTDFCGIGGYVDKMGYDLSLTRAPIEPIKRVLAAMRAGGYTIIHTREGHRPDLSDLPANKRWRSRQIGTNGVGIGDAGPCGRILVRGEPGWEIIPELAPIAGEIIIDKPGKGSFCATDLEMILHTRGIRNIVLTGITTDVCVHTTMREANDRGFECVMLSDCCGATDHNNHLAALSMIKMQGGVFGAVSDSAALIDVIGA

With `N=C(N)NC(N)=O` [guanylurea], the Km in test [1] was found to be 16 µM. For `NC(=O)NC(N)=O` [biuret], the activity result at biuret hydrolase (BiuH) is “diminished activity with biuret compared to that of the wild type”.

These data come from PMC8208167 (Applied and Environmental Microbiology, 2021).
